Test results from ChEMBL document CHEMBL1909046, “DrugMatrix in vitro pharmacology data”.

Experiments:
[1] = target: Cannabinoid receptor 1 (Homo sapiens, UniProt P21554); format: cell membranes, Chem-1, Membrane; note: in other assays of this panel Not Active means under 50% inhibition at 10 µM
[2] = target: T1, Endothelin-1 receptor (Homo sapiens, UniProt P25101); format: cell membranes, Membrane; conditions: cho-k1; note: in other assays of this panel Not Active means under 50% inhibition at 10 µM
T1 sequence (P25101 whole entry): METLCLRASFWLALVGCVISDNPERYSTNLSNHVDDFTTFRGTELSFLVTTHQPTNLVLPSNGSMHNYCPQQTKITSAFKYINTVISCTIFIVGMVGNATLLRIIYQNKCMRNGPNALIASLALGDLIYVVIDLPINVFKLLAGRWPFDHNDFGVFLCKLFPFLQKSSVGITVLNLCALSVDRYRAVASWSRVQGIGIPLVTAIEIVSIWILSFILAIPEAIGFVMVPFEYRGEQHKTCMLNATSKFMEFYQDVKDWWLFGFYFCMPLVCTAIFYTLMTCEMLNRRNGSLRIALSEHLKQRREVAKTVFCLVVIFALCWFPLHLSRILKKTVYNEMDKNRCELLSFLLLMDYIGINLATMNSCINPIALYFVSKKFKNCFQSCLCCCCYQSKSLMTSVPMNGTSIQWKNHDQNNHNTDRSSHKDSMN

[3] = DRUGMATRIX: GABAA, Chloride Channel, TBOB radioligand binding (ligand: [3H] TBOB); format: cell membranes, Rattus norvegicus, Wistar, Cerebral cortex, Membrane; conditions: Not Active = under 50% inhibition at 10 µM
[4] = target: Mu-type opioid receptor (Homo sapiens, UniProt P35372); assay: DRUGMATRIX: Opiate mu (OP3, MOP) radioligand binding (ligand: [3H] Diprenorphine); format: cell membranes, CHO-K1, Membrane; conditions: Not Active = under 50% inhibition at 10 µM
[5] = target: T2, 5-hydroxytryptamine receptor 1A (Rattus norvegicus, UniProt P19327); format: cell membranes, CHO-K1, Membrane; note: in other assays of this panel Not Active means under 50% inhibition at 10 µM
T2 sequence (P19327 whole entry): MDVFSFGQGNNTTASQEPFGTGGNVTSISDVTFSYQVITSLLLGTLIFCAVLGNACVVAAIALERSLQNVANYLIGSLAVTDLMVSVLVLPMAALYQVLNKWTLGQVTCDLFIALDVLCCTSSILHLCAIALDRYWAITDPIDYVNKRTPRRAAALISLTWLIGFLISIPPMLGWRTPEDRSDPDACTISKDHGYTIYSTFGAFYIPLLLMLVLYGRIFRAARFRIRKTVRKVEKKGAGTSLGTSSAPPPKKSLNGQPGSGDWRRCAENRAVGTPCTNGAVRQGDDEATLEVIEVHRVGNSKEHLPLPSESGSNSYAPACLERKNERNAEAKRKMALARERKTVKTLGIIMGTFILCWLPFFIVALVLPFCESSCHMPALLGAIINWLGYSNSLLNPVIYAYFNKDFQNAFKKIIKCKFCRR

[6] = target: Cytochrome P450 2C19 (Homo sapiens, UniProt P33261); conditions: bti-tn-5b1-4; note: in other assays of this panel Not Active means under 50% inhibition at 10 µM
[7] = target: Estrogen receptor beta (Homo sapiens, UniProt Q92731); conditions: sf9; note: in other assays of this panel Not Active means under 50% inhibition at 10 µM
Sequence of Estrogen receptor beta (Q92731 whole entry): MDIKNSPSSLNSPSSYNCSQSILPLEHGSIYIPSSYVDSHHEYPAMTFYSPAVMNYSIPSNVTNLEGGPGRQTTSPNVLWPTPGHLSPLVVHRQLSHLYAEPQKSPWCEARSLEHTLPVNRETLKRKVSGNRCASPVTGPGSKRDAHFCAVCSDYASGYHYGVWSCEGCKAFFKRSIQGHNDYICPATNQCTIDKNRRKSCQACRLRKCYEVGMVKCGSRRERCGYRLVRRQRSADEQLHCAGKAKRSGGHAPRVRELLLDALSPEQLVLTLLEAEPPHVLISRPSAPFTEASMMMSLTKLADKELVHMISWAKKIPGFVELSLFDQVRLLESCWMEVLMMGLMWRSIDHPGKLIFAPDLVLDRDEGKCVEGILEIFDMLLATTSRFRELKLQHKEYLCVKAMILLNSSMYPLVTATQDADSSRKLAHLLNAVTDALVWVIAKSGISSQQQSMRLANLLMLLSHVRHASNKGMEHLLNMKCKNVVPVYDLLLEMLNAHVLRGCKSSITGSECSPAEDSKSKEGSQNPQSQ

Sequence of Cytochrome P450 2C19 (P33261 whole entry): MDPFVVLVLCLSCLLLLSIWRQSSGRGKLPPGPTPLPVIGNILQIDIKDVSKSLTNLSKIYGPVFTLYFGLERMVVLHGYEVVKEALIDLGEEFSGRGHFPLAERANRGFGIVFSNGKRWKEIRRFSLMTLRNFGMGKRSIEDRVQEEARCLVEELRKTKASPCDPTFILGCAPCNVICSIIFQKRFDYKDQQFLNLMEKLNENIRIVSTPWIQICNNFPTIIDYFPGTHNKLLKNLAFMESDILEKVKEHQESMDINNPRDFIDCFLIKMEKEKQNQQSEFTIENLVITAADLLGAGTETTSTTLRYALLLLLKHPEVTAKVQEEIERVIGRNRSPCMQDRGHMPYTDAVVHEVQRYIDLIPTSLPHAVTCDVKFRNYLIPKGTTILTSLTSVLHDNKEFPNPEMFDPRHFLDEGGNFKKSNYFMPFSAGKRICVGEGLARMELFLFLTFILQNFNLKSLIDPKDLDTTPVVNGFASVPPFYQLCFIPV
Sequence of Mu-type opioid receptor (P35372 whole entry): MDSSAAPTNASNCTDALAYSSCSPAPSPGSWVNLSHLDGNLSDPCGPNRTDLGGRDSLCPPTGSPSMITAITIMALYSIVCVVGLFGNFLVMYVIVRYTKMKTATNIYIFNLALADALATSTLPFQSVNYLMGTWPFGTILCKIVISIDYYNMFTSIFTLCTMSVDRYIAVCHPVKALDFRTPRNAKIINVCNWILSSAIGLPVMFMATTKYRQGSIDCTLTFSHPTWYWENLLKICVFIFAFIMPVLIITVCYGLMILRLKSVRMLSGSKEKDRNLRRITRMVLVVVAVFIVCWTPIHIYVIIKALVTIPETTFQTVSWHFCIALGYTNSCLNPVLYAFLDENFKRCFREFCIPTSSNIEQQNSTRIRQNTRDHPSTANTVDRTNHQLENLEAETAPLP
Sequence of Cannabinoid receptor 1 (P21554 whole entry): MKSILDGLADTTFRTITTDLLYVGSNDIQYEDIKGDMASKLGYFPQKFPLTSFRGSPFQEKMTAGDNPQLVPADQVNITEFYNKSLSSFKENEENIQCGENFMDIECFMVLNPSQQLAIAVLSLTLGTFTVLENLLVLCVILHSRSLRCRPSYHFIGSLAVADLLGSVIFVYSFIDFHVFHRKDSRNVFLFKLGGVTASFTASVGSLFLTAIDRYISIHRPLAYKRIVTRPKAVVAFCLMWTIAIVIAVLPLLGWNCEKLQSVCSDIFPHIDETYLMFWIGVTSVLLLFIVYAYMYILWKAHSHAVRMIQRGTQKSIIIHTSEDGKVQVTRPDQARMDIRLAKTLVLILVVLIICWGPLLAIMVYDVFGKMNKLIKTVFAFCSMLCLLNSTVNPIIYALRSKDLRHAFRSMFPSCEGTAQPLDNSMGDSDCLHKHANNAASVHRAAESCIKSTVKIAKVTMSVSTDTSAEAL

Compound	IC50 ([1]; chem-1)	IC50 [2]	IC50 [3]	Ki [3]	IC50 ([4]; cho-k1)	IC50 ([5]; cho-k1)	IC50 [6]	Ki [6]	IC50 [7]	IC50 ([1]; read-out: IC50) [µM]	Ki ([1]; read-out: Ki) [µM]	Ki [4] [µM]	IC50 ([4]; read-out: IC50) [µM]	IC50 ([5]; read-out: IC50) [µM]	Ki ([5]; read-out: Ki) [µM]	Ki ([1]; chem-1)	Ki [2]	Ki ([5]; cho-k1)	Ki [7]
O=C(Oc1ccccc1C(=O)O)c1ccccc1O [SALSALATE]	Not Active	Not Active	Not Active	Not Active	Not Active	Not Active	Not Active	Not Active											
CNC1(c2ccccc2Cl)CCCCC1=O (stereo unspecified) [KETAMINE]	Not Active	Not Active	Not Active	Not Active	Not Active	Not Active	Not Active	Not Active	Not Active										
Fc1ccc(C(c2ccc(F)cc2)N2CCN(C/C=C/c3ccccc3)CC2)cc1 [FLUNARIZINE]		Not Active					Not Active	Not Active	Not Active	3.03	2.39	2.12	5.24	4.28	2.45				
CN[C@H]1CC[C@@H](c2ccc(Cl)c(Cl)c2)c2ccccc21 [SERTRALINE]	Not Active	Not Active			Not Active	Not Active			Not Active										
O=C(Nc1ccc(Br)cc1)c1cc(Br)cc(Br)c1O [TRIBROMSALAN]	Not Active	Not Active	Not Active	Not Active		Not Active	Not Active	Not Active	Not Active										
Cc1cccc(C)c1OCC(C)N (stereo unspecified) [MEXILETINE]		Not Active	Not Active	Not Active	Not Active	Not Active	Not Active	Not Active								Not Active			
MANGANESE CHLORIDE ANHYDROUS	Not Active	Not Active	Not Active	Not Active		Not Active	Not Active	Not Active	Not Active							Not Active	Not Active	Not Active	Not Active
Clc1ccc(COC(Cn2ccnc2)c2ccc(Cl)cc2Cl)cc1 (stereo unspecified) [ECONAZOLE]		Not Active							Not Active					16.2	9.24				
O.O.O.O.O.O.[Cl-].[Cl-].[Sr+2] [STRONTIUM CHLORIDE HEXAHYDRATE]	Not Active	Not Active	Not Active	Not Active	Not Active	Not Active	Not Active	Not Active											
CCN(CC)CCOc1ccc(/C(=C(/Cl)c2ccccc2)c2ccccc2)cc1 [ENCLOMIPHENE]	Not Active	Not Active			Not Active	Not Active	Not Active	Not Active	Not Active										
Clc1ccccc1CN1CCc2sccc2C1 [TICLOPIDINE]	Not Active	Not Active	Not Active	Not Active	Not Active	Not Active			Not Active										
CC(C)Oc1ccc2c(=O)c(-c3ccccc3)coc2c1 [IPRIFLAVONE]	Not Active	Not Active	Not Active	Not Active	Not Active	Not Active	Not Active	Not Active											
C[C@H]1C[C@@H]2[C@H]([C@@H](O)C[C@@]3(C)[C@H]2CC[C@]3(O)C(=O)CO)[C@@]2(C)C=CC(=O)C=C12 [METHYLPREDNISOLONE]	Not Active	Not Active	Not Active	Not Active	Not Active	Not Active													
SODIUM ORTHOVANAD	Not Active	Not Active	Not Active	Not Active		Not Active	Not Active	Not Active	Not Active							Not Active	Not Active	Not Active	Not Active
Cc1c(C)c2c(c(C)c1O)CCC(C)(CN1CCN(c3cc(N4CCCC4)nc(N4CCCC4)n3)CC1)O2 (stereo unspecified)	Not Active	Not Active	Not Active	Not Active		Not Active			Not Active			4.36	10.7						
O=C(O)c1cn(-c2ccc(F)cc2)c2cc(N3CCNCC3)c(F)cc2c1=O [SARAFLOXACIN]	Not Active	Not Active	Not Active	Not Active	Not Active	Not Active	Not Active	Not Active											
CS(=O)(=O)c1ccc([C@@H](O)[C@@H](CO)NC(=O)C(Cl)Cl)cc1 [THIAMPHENICOL]	Not Active	Not Active	Not Active	Not Active	Not Active	Not Active	Not Active	Not Active											
CN(C)CCOC(c1ccccc1)c1ccccc1 [DIPHENHYDRAMINE]	Not Active	Not Active			Not Active	Not Active			Not Active										
CCN(CC)CC(=O)Nc1c(C)cccc1C [LIDOCAINE]	Not Active	Not Active	Not Active	Not Active	Not Active	Not Active			Not Active										
CCCCNc1ccc(C(=O)OCCN(C)C)cc1 [TETRACAINE]	Not Active	Not Active	Not Active	Not Active	Not Active	Not Active													
CNCCC(Oc1ccc(C(F)(F)F)cc1)c1ccccc1 (stereo unspecified) [FLUOXETINE]	Not Active	Not Active			Not Active	Not Active	Not Active	Not Active	Not Active										
CC[C@@H](C(=O)[C@@H](C)[C@@H](O)[C@H](C)[C@@H]1O[C@@H]([C@@H](CC)C(=O)O)CC[C@@H]1C)[C@H]1O[C@]2(C=C[C@@H](O)[C@]3(CC[C@@](C)([C@H]4CC[C@](O)(CC)[C@H](C)O4)O3)O2)[C@H](C)C[C@@H]1C [SALINOMYCIN]	Not Active	Not Active	Not Active	Not Active		Not Active	Not Active	Not Active	Not Active										
Cc1ccc(NC(=O)c2ccc(CN3CCN(C)CC3)cc2)cc1Nc1nccc(-c2cccnc2)n1 [IMATINIB]	Not Active	Not Active			Not Active	Not Active	Not Active	Not Active	Not Active										
CO[C@@H]1[C@@H](OC)[C@H](C)[C@@](O)(CC(=O)O)O[C@H]1[C@H](C)[C@H]1O[C@@]2(CC[C@@](C)([C@H]3CC[C@@](C)([C@@H]4O[C@@H]([C@H]5O[C@](C)(O)[C@H](C)C[C@@H]5C)C[C@@H]4O[C@@H]4C[C@H](OC)[C@@H](OC)[C@H](C)O4)O3)O2)C[C@H](O)[C@H]1C [MADURAMICIN ACID]	Not Active	Not Active	Not Active	Not Active	Not Active		Not Active	Not Active						0.00783	0.00447				
O=C1C(CC[S+]([O-])c2ccccc2)C(=O)N(c2ccccc2)N1c1ccccc1 (stereo unspecified) [SULFINPYRAZONE]	Not Active	Not Active	Not Active	Not Active	Not Active	Not Active	Not Active	Not Active											
Cn1c(=O)c2nc[nH]c2n(C)c1=O.O [THEOPHYLLINE]	Not Active	Not Active	Not Active	Not Active	Not Active	Not Active	Not Active	Not Active											
